Source: PMC8708872, “Discovery of a Novel Template, 7-Substituted 7-Deaza-4′-Thioadenosine Derivatives as Multi-Kinase Inhibitors” (Pharmaceuticals, 2021)

Legend:
[1] = tested on: cancer cells; test: Antiproliferative activity against cancer cells (six lines, SRB); type: cell-based; conditions: Homo sapiens; range over the six cancer cell lines of Table 1
Method: (§1) Human lung cancer cells (A549), colorectal cancer (HCT116) cells, breast cancer cells (MDA-MB-231), liver cancer cells (SK-HEP-1), and prostate cancer cells (PC-3) were purchased from the American Type Culture Collection (Manassas, VA, USA). Human gastric cancer cells (SNU-638) were purchased from the Korean Cell Line Bank (Seoul, Korea). Cells were cultured in medium (Dulbecco’s modified Eagle’s medium for MDA-MB-231 and SK-HEP-1 cells; Roswell Park Memorial Institute 1640 for A549, HCT116, SNU-638, PC-3 cells) supplemented with penicillin-streptomycin and 10% fetal bovine serum at 37 °C in a humidified incubator with 5% carbon dioxide. Cells were seeded at a density of 4–7 × 10^4 cells/mL in 96-well culture plates, and then treated with indicated compounds for 72 h. At the end of the experiment, cells were fixed with 10% trichloroacetic acid (TCA) solution and subjected to sulforhodamine B (SRB) assay to determine cell proliferation. The percentage of cell proliferation was calculated with the following formula:Cell proliferation (%) = 100 × [(A treated − A zero day)/(A control − A zero day)], where A is the average absorbance. The IC50 values were calculated through non-linear regression analysis using TableCurve 2D v5.01 (Systat Software Inc., San Jose, CA, USA). All experiments were performed in triplicate and data shown are representative of two or three independent experiments.

[2] = biological target: T1, TRKA (Homo sapiens, UniProt P04629); test: Kinase inhibition profile, KINOMEscan 11-point dose response; type: binding
T1 construct: purchased Eurofins DiscoverX Corporation

[3] = biological target: T2, DYRK1B (Homo sapiens, UniProt Q9Y463); test: as above; type: binding
T2 construct: purchased Eurofins DiscoverX Corporation

[4] = biological target: T3, MKNK2 (Homo sapiens, UniProt Q9HBH9); test: Kinome scan; type: binding; conditions: 1000 nM
T3 construct: purchased Eurofins DiscoverX Corporation
Method: (§2) The kinome scan assays were carried out at Eurofins DiscoverX Corporation. For kinome scan profiling of compound 1g, it was screened at 1μM against 96 kinases (N = 2 independent experiments). The results for binding interactions are reported as % inhibition, where higher values indicate strong affinity; see the Supporting Information, Table S1 for full kinome profile.

[5] = biological target: T4, INSR (Homo sapiens, UniProt P06213); test: Kinome scan; type: binding; conditions: 1000 nM
T4 construct: purchased Eurofins DiscoverX Corporation
Method: as §2

[6] = biological target: T5, AURKB (Homo sapiens, UniProt Q96GD4); test: Kinome scan; type: binding; conditions: 1000 nM
T5 construct: purchased Eurofins DiscoverX Corporation
Method: as §2

[7] = biological target: T6, PLK4 (Homo sapiens, UniProt O00444); test: Kinome scan; type: binding; conditions: 1000 nM
T6 construct: purchased Eurofins DiscoverX Corporation
Method: as §2

[8] = biological target: T7, PIK3CA (Homo sapiens, UniProt P42336); test: Kinome scan; type: binding; conditions: 1000 nM
T7 construct: purchased Eurofins DiscoverX Corporation
Method: as §2

[9] = biological target: T8, CYP2D6 (Homo sapiens, UniProt P10635); test: CYP inhibition assay; type: in vitro ADME; conditions: human liver microsomes
T8 construct: Human liver microsomes (0.25 mg/mL); from tissue; host or cells: human liver microsomes

[10] = tested on: KM12; test: Antiproliferative activity against KM12; type: cell-based; conditions: Homo sapiens, colon cancer cell line highly expressing NTRK1/2/3 and DYRK3, read-out: IC50 cell growth of KM12
[11] = biological target: T9, CYP2C9 (Homo sapiens, UniProt P11712); test: CYP inhibition assay; type: in vitro ADME; conditions: human liver microsomes
T9 construct: Human liver microsomes (0.25 mg/mL); from tissue; host or cells: human liver microsomes
Method: (§3) Human liver microsomes (0.25 mg/mL), 0.1 M phosphate buffer (pH 7.4), a cocktail of five […] substrates (Phenacetin 50 μM, Diclofenac 10 μM, S-mephenytoin 100 μM, Dextromethorphan 5 μM, Midazolam 2.5 μM), and test compound (10 μM concentration) was pre-incubated for 5 min at 37 °C. NADPH generation system solution was added and incubated for 15 min at 37 °C. In order to terminate the reaction, acetonitrile solution containing an internal standard (Terfenadine) was added and centrifuged for 5 min (14,000× g […], 4 °C). The supernatant was injected into the LC-MS/MS system to analyze the metabolites of the substrates simultaneously. Metabolites of each substrate produced during the reaction were analyzed using the Shimadzu Nexera XR system and TSQ vantage (Thermo). Kinetex C18 column (2.1 × 100 mm, 2.6 μm particle size; Phenomenex, USA) was used for HPLC. The mobile phase used contained 0.1% formic acid in distilled water (A) and 0.1% formic acid containing acetonitrile (B). The generated metabolites were quantified using MRM (Multiple Reaction Monitoring) and Xcalibur (version 1.6.1) was used for data analysis.

[12] = biological target: T10, CYP2C19 (Homo sapiens, UniProt P33261); test: CYP inhibition assay; type: in vitro ADME; conditions: human liver microsomes
T10 construct: Human liver microsomes (0.25 mg/mL); from tissue; host or cells: human liver microsomes
Method: as §3

[13] = biological target: T11, CYP1A2 (Homo sapiens, UniProt P05177); test: CYP inhibition assay; type: in vitro ADME; conditions: human liver microsomes
T11 construct: Human liver microsomes (0.25 mg/mL); from tissue; host or cells: human liver microsomes
Method: as §3

[14] = tested on: ACHN; test: Antiproliferative activity against ACHN; type: cell-based; conditions: Homo sapiens, renal cancer cell line expressing CK1δ and DYRK2, read-out: IC50 cell growth of ACHN
[15] = tested on: MDA-MB-231; test: SRB cell proliferation inhibition assay; type: cell-based; conditions: human breast cancer cells, 72 h
Method: as §1

[16] = tested on: SK-HEP-1; test: SRB cell proliferation inhibition assay; type: cell-based; conditions: SK-HEP1, human liver cancer cells, 72 h
Method: as §1

[17] = tested on: A549; test: SRB cell proliferation inhibition assay; type: cell-based; conditions: human lung cancer cells, 72 h
Method: as §1

[18] = tested on: PC-3; test: SRB cell proliferation inhibition assay; type: cell-based; conditions: human prostate cancer cells, 72 h
Method: as §1

[19] = tested on: SNU638; test: SRB cell proliferation inhibition assay; type: cell-based; conditions: SNU-638, human stomach cancer cells, 72 h
Method: as §1

[20] = tested on: HCT116; test: SRB cell proliferation inhibition assay; type: cell-based; conditions: HCT-116, human colon cancer cells, 72 h
Method: as §1

[21] = biological target: T12, DYRK1A (Homo sapiens, UniProt Q13627); test: Kinase inhibition profile, KINOMEscan 11-point dose response; type: binding
T12 construct: purchased Eurofins DiscoverX Corporation

[22] = Metabolic stability in human liver microsomes; type: in vitro ADME; conditions: % remaining during 30 min, 1 μM
[23] = tested on: human normal dermal fibroblast cells; test: Antiproliferative activity against normal cells; type: cell-based; conditions: cultured human normal primary dermal fibroblast cells; read-out: IC50 growth inhibition, normal dermal fibroblast cells
[24] = biological target: T13, CYP3A4 (Homo sapiens, UniProt P08684); test: CYP inhibition assay; type: in vitro ADME; conditions: human liver microsomes
T13 construct: Human liver microsomes (0.25 mg/mL); from tissue; host or cells: human liver microsomes

[25] = biological target: T14, CK1δ (Homo sapiens, UniProt P48730); test: Kinase inhibition profile, KINOMEscan 11-point dose response; type: binding
T14 construct: purchased Eurofins DiscoverX Corporation

[26] = 11-point 3-fold serial dilution

T1 sequence (P04629 33-796): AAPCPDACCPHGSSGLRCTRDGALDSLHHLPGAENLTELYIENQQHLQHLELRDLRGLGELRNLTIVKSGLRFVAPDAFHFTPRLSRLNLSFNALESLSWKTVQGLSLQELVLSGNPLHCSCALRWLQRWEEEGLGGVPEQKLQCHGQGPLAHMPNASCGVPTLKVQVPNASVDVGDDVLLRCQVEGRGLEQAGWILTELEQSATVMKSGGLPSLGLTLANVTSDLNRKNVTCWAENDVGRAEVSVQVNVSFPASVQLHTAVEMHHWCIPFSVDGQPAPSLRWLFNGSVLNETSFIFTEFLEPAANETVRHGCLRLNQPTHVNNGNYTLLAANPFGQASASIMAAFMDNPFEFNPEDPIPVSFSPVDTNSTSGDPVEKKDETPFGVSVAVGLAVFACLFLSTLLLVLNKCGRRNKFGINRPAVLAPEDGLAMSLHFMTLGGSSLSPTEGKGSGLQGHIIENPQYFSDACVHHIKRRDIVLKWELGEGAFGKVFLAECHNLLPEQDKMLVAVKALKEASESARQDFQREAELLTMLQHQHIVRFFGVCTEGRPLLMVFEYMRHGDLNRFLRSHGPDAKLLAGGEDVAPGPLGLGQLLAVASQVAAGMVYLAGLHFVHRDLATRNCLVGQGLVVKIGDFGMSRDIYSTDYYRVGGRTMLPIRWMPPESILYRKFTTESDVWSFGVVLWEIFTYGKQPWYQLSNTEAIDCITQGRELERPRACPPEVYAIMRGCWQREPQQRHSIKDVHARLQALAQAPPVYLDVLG
T2 sequence (Q9Y463 whole entry): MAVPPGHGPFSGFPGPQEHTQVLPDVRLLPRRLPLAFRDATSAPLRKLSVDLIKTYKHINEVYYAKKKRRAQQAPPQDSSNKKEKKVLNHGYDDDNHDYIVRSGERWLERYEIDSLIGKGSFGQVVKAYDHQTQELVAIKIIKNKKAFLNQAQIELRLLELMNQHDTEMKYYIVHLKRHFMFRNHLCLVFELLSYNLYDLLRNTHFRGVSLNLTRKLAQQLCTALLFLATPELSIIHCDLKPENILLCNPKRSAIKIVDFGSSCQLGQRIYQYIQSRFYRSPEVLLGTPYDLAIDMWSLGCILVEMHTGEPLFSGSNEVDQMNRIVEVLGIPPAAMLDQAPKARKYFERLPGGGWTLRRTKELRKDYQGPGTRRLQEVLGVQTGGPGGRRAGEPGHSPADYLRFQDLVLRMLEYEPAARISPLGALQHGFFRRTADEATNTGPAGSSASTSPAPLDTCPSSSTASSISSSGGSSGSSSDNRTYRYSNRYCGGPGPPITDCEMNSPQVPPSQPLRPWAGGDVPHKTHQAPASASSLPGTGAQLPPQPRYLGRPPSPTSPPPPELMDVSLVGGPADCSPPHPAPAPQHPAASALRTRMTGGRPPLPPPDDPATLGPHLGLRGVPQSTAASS
T14 sequence (P48730 whole entry): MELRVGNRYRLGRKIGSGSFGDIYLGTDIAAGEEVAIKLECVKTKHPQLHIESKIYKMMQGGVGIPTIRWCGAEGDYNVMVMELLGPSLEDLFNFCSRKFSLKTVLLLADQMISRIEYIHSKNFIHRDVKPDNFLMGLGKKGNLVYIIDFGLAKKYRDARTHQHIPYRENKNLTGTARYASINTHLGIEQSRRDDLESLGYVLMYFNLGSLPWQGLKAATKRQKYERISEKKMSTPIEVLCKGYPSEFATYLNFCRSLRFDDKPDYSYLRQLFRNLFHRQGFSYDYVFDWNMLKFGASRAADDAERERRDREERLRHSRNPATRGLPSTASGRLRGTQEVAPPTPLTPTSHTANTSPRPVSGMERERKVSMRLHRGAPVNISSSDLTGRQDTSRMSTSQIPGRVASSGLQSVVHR
T6 sequence (O00444 whole entry): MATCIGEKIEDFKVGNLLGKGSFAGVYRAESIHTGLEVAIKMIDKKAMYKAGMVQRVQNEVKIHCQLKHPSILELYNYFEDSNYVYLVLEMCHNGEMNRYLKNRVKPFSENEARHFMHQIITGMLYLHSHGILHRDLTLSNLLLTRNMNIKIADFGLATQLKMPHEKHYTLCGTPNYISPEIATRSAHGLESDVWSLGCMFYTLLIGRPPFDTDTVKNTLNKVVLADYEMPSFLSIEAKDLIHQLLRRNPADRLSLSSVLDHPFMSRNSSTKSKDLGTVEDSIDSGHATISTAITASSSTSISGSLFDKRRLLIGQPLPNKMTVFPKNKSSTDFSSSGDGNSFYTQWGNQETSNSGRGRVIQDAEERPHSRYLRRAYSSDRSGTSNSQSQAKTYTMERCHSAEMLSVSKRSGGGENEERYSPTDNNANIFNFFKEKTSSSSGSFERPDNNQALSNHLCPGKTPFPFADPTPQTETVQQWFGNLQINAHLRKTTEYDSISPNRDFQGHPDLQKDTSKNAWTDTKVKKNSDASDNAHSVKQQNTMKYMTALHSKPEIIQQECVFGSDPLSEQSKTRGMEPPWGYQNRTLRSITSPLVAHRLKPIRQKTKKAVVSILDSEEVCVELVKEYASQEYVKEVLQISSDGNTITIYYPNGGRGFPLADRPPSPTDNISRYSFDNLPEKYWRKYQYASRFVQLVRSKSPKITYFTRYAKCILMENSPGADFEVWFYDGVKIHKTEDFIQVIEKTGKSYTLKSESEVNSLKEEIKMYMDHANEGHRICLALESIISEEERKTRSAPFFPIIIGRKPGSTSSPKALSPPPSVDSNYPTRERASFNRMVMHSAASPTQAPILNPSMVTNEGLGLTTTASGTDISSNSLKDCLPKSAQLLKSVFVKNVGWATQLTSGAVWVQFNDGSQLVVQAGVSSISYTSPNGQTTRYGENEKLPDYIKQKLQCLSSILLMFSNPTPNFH
T9 sequence (P11712 whole entry): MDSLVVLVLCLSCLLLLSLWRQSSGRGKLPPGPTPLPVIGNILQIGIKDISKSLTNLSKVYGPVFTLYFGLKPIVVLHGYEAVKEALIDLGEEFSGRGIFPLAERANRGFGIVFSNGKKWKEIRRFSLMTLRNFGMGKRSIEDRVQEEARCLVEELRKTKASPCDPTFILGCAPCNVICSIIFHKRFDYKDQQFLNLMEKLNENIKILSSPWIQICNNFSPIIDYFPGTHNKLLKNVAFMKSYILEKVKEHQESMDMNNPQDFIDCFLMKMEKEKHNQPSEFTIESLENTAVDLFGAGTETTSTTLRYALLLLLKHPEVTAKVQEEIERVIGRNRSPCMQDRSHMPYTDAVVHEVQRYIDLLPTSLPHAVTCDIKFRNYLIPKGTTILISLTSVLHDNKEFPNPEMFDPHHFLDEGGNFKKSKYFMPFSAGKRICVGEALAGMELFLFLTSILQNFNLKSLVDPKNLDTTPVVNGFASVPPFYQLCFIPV
T3 sequence (Q9HBH9 whole entry): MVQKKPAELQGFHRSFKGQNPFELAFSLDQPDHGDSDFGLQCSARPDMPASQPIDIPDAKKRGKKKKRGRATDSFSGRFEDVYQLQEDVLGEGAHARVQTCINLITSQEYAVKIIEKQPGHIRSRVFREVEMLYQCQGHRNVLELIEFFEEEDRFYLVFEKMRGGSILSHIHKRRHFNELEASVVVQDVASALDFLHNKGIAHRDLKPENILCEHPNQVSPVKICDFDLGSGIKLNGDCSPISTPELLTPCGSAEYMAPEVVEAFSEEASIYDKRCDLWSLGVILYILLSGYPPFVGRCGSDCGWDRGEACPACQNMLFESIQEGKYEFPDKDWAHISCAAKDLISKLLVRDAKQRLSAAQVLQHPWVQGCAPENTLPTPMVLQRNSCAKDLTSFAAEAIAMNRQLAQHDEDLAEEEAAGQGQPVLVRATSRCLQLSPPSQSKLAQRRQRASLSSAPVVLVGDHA
T5 sequence (Q96GD4 whole entry): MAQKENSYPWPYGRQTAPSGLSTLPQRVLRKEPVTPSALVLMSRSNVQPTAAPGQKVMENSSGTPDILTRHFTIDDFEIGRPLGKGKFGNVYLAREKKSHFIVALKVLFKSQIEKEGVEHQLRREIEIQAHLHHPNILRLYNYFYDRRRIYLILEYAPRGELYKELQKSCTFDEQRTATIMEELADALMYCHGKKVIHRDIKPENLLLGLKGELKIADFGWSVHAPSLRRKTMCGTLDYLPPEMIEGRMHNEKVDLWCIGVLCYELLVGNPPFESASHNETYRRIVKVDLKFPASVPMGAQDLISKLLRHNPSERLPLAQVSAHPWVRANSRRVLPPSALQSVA
T13 sequence (P08684 whole entry): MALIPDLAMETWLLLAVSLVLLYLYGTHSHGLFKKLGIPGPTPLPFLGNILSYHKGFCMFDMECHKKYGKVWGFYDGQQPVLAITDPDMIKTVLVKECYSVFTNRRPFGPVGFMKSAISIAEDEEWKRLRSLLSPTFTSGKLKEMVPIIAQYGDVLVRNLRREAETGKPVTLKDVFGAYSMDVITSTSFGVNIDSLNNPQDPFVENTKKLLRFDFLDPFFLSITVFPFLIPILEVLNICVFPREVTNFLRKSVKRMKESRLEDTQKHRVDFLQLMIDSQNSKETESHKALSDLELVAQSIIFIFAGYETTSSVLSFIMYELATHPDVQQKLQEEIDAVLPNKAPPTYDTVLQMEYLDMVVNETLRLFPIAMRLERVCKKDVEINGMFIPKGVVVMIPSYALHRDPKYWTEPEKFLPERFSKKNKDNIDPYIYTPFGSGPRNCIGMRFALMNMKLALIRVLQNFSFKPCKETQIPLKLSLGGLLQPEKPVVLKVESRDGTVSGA

IC50 [1]: 4 to 60 nM | IC50 [2, 26]: 148 nM | Ki ([2]; by Cheng-Prusoff equation): 296 nM | IC50 [3, 26]: 33 nM | Ki ([3]; by Cheng-Prusoff equation): 33 nM | inhibition at 1 µM [4]: 62% | inhibition at 1 µM [5]: 5% | inhibition at 1 µM [6]: 0% | inhibition at 1 µM [7]: 0% | inhibition at 1 µM [8]: 7% | IC50 [9]: > 20000 nM | IC50 [11]: > 20000 nM | IC50 [12]: > 20000 nM | IC50 [13]: > 20000 nM | IC50 [14]: ~40 nM | IC50 [15]: 50 nM | IC50 [16]: 50 nM | IC50 [17]: 60 nM | IC50 [18]: 4 nM | IC50 [19]: 30 nM | IC50 [20]: 30 nM | IC50 [21, 26]: 43 nM | Ki ([21]; by Cheng-Prusoff equation): 86 nM | Metabolic Stability (%) [22]: 82.3% | IC50 [24]: > 20000 nM | IC50 [25, 26]: 80 nM | Ki ([25]; by Cheng-Prusoff equation): 80 nM
SMILES: C#Cc1cn([C@@H]2S[C@H](CO)[C@@H](O)[C@H]2O)c2ncnc(N)c12 [Compound 1g, (2R,3R,4S,5R)-2-(4-Amino-5-ethynyl-7H-pyrrolo[2,3-d]pyrimidin-7-yl)-5-(hydroxymethyl)tetrahydrothiophene-3,4-diol]
IC50 [10]: 70 nM | IC50 [23]: 150 nM
